Active and inactive are the calls of the source. The rule behind the calls is not given here.
Legend:
[1] = target: Substance-K receptor (Homo sapiens) (UniProt P21452); assay: Binding affinity to human NK2 receptor at 1 uM
[2] = Binding affinity to central benzodiazepine receptor at 1 uM
[3] = target: 5-hydroxytryptamine receptor 1A (Homo sapiens) (UniProt P08908); assay: Binding affinity to 5HT1A receptor at 1 uM
Cytochrome P450 2C19 = Cytochrome P450 2C19 (Homo sapiens, UniProt P33261); assay: Inhibition of CYP2C19; type: ADME
[4] = target: Sodium-dependent noradrenaline transporter (Homo sapiens) (UniProt P23975); assay: Binding affinity to NET at 1 uM
[5] = target: Cholecystokinin receptor type A (Homo sapiens) (UniProt P32238); assay: Binding affinity to human CCKA receptor at 1 uM
[6] = Drug level in rat blood at 130 mg/kg, po after 5 hrs; type: ADME, organism-based; parameters: dose 130 mg/kg, route oral; conditions: read-out: Drug uptake
Rattus norvegicus [7] = assay: Antihyperalgesic activity in complete Freund's adjuvant rat model of inflammatory pain assessed as reversal of hypersensitivity at 0.1 mg/kg, po administered as single dose measured after 1 hr; type: functional, organism-based; parameters: dose 0.1 mg/kg
Cytochrome P450 2C9 = Cytochrome P450 2C9 (Homo sapiens, UniProt P11712); assay: Inhibition of CYP2C9; type: ADME
[8] = target: B2 bradykinin receptor (Homo sapiens) (UniProt P30411); assay: Binding affinity to human bradykinin B2 receptor at 1 uM
[9] = Binding affinity to adrenergic alpha1 receptor at 1 uM
Cannabinoid receptor 2 [10] = target: T1, Cannabinoid receptor 2 (Homo sapiens, UniProt P34972); assay: Agonist activity at human recombinant cannabinoid CB2 receptor expressed in MMY23 Saccharomyces cerevisiae assessed as degradation of FDGlu to fluorescein after 24 hrs by spectrofluorimetry relative to HU210; type: functional
Cannabinoid receptor 2 [11] = target: T1, Cannabinoid receptor 2; assay: Agonist activity at human recombinant cannabinoid CB2 receptor expressed in CHOK1 cells assessed as forskolin-induced cAMP production by luciferase assay; type: functional, cell-based, CHO-K1
Cytochrome P450 2D6 = Cytochrome P450 2D6 (Homo sapiens, UniProt P10635); assay: Inhibition of CYP2D6; type: ADME
[12] = Ratio of drug level in brain to blood in rat 130 mg/kg, po after 1 hr; type: ADME, organism-based; parameters: dose 130 mg/kg, route oral
[13] = target: Muscarinic acetylcholine receptor M4 (Homo sapiens) (UniProt P08173); assay: Binding affinity to human muscarinic M4 receptor at 1 uM
[14] = Intrinsic clearance in rat liver microsomes; type: ADME, Microsome
[15] = target: Kappa-type opioid receptor (Homo sapiens) (UniProt P41145); assay: Binding affinity to kappa opioid receptor at 1 uM
[16] = target: Melatonin receptor type 1A (Homo sapiens) (UniProt P48039); assay: Binding affinity to human ML1 receptor at 1 uM
Cytochrome P450 1A2 = Cytochrome P450 1A2 (Homo sapiens, UniProt P05177); assay: Inhibition of CYP1A2; type: ADME
[17] = target: Adenosine receptor A3 (Homo sapiens) (UniProt P0DMS8); assay: Binding affinity to human adenosine A3 receptor at 1 uM
[18] = target: Muscarinic acetylcholine receptor M3 (Homo sapiens) (UniProt P20309); assay: Binding affinity to human muscarinic M3 receptor at 1 uM
[19] = target: D(2) dopamine receptor (Homo sapiens) (UniProt P14416); assay: Binding affinity to human dopamine D2S receptor at 1 uM
[20] = Ratio of drug level in brain to blood in rat 130 mg/kg, po after 5 hrs; type: ADME, organism-based; parameters: dose 130 mg/kg, route oral
[21] = Ratio of drug level in brain to blood in Sprague-Dawley rat at 0.4 mg/kg/hr, iv up to 12 hrs; type: ADME, organism-based; parameters: route intravenous
Rattus norvegicus [22] = assay: Induction of hypothermia in rat at 130 mg/kg, po after 1 to 5 hrs; type: organism-based; parameters: dose 130 mg/kg, route oral; conditions: in vivo
[23] = target: Muscarinic acetylcholine receptor M2 (Homo sapiens) (UniProt P08172); assay: Binding affinity to human muscarinic M2 receptor at 1 uM
[24] = Drug level in blood of rat joint model of chronic pain at 10 mg/kg, po BID for 5 days; type: ADME, organism-based; parameters: dose 10 mg/kg, route oral; conditions: read-out: Drug uptake
[25] = target: Histamine H2 receptor (Homo sapiens) (UniProt P25021); assay: Binding affinity to human histamine H2 receptor at 1 uM
Cannabinoid receptor 2 [26] = target: T1, Cannabinoid receptor 2; assay: Agonist activity at human recombinant cannabinoid CB2 receptor expressed in CHOK1 cells assessed as forskolin-induced cAMP production at 20 uM by luciferase assay relative to HU210; type: functional, cell-based; conditions: CHO-K1
Rattus norvegicus [27] = assay: Analgesic activity in po dosed rat joint model of chronic pain assessed as minimum effective dose administered BID for 5 days; type: functional; conditions: 120 h, read-out: MED
[28] = Intrinsic clearance in human liver microsomes; type: ADME, Microsome
[29] = target: Galanin receptor type 2 (Homo sapiens) (UniProt O43603); assay: Binding affinity to human GAL2 receptor at 1 uM
[30] = Drug level in blood of rat joint model of chronic pain at 3 mg/kg, po BID for 5 days; type: ADME, organism-based; parameters: dose 3 mg/kg, route oral; conditions: read-out: Drug uptake
[31] = target: Muscarinic acetylcholine receptor M1 (Homo sapiens) (UniProt P11229); assay: Binding affinity to human muscarinic M1 receptor at 1 uM
[32] = Drug level in Sprague-Dawley rat blood at 2 mg/kg, po after 0.8 hrs; type: ADME, organism-based; parameters: dose 2 mg/kg, route oral; conditions: read-out: Drug uptake
[33] = target: Histamine H1 receptor (Homo sapiens) (UniProt P35367); assay: Binding affinity to human histamine H1 receptor at 1 uM
[34] = target: Endothelin-1 receptor (Homo sapiens) (UniProt P25101); assay: Binding affinity to human ETA receptor at 1 uM
Homo sapiens = species on record: Homo sapiens; assay: Selectivity ratio of EC50 for human recombinant cannabinoid CB1 receptor to EC50 for human recombinant cannabinoid CB2 receptor
[35] = target: Alpha-2A adrenergic receptor (Homo sapiens) (UniProt P08913); assay: Binding affinity to adrenergic alpha2 receptor at 1 uM
[36] = target: Melanocortin receptor 4 (Homo sapiens) (UniProt P32245); assay: Binding affinity to human MC4 receptor at 1 uM
Rattus norvegicus [37] = assay: Analgesic activity in rat joint model of chronic pain assessed as reversal of hypersensitivity at 10 mg/kg, po BID for 5 days; type: functional, organism-based; parameters: dose 10 mg/kg
[38] = Ratio of drug level in brain to blood in rat 130 mg/kg, po after 3 hrs; type: ADME, organism-based; parameters: dose 130 mg/kg, route oral
[39] = target: 5-hydroxytryptamine receptor 5A (Homo sapiens) (UniProt P47898); assay: Binding affinity to 5HT5A receptor at 1 uM
Cannabinoid receptor 1 = Cannabinoid receptor 1 (Homo sapiens, UniProt P21554); assay: Agonist activity at human recombinant cannabinoid CB1 receptor expressed in MMY23 Saccharomyces cerevisiae assessed as degradation of FDGlu to fluorescein after 24 hrs by spectrofluorimetry relative to HU210; type: functional
[40] = target: C-X-C chemokine receptor type 2 (Homo sapiens) (UniProt P25025); assay: Binding affinity to human CXCR2 receptor at 1 uM
[41] = Drug level in rat blood at 130 mg/kg, po after 3 hrs; type: ADME, organism-based; parameters: dose 130 mg/kg, route oral; conditions: read-out: Drug uptake
Rattus norvegicus [42] = assay: Antihyperalgesic activity in complete Freund's adjuvant rat model of inflammatory pain assessed as reversal of hyperalgesia at 1 mg/kg, po administered as single dose; type: functional, organism-based; parameters: dose 1 mg/kg
[43] = target: 5-hydroxytryptamine receptor 2A (Homo sapiens) (UniProt P28223); assay: Binding affinity to 5HT2A receptor at 1 uM

T1 sequence (P34972 whole entry): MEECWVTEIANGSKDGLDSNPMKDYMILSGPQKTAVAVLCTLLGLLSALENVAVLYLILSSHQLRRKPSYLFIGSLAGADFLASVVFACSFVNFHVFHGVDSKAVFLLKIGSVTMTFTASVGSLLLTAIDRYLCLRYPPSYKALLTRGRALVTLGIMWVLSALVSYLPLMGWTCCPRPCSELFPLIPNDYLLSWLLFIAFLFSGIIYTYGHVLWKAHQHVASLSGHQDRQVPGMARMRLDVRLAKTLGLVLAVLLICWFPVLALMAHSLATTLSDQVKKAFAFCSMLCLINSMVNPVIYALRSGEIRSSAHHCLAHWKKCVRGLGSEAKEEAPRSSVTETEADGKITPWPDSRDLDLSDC
Chain of Histamine H1 receptor (Homo sapiens) (P35367 whole entry): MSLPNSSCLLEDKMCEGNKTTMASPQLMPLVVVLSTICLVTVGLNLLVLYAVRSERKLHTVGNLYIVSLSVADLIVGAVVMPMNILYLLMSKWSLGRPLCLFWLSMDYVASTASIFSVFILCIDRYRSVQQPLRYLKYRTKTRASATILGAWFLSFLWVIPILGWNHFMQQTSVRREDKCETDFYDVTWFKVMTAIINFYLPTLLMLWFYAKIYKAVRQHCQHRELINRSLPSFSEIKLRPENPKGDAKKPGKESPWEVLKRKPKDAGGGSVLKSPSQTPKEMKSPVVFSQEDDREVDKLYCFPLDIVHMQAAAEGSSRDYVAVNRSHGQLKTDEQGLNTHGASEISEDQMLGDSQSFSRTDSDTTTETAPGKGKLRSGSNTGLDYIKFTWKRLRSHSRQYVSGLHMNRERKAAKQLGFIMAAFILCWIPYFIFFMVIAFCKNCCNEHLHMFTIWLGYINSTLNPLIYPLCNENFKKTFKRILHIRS
Chain of 5-hydroxytryptamine receptor 5A (Homo sapiens) (P47898 whole entry): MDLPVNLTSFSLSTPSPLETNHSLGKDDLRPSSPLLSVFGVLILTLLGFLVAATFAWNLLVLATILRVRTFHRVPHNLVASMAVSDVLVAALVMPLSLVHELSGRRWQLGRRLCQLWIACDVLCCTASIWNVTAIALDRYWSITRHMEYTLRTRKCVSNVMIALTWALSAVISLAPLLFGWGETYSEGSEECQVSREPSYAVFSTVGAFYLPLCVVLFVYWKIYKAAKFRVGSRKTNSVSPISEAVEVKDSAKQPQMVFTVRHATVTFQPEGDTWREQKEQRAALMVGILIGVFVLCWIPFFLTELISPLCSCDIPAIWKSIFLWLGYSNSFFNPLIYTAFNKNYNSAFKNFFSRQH
Chain of Muscarinic acetylcholine receptor M1 (Homo sapiens) (P11229 whole entry): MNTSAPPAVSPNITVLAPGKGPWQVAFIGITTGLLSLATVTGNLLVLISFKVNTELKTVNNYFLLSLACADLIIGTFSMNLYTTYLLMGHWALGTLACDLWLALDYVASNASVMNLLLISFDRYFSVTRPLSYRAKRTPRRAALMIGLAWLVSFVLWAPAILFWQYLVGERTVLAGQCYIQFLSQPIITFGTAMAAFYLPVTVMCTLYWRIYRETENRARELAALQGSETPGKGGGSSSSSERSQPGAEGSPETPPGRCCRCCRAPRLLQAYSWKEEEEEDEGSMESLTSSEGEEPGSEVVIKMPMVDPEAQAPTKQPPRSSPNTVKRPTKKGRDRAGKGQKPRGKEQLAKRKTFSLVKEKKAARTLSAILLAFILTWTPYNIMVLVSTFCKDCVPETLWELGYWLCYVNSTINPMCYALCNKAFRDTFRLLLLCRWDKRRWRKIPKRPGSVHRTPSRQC
Chain of Sodium-dependent noradrenaline transporter (Homo sapiens) (P23975 whole entry): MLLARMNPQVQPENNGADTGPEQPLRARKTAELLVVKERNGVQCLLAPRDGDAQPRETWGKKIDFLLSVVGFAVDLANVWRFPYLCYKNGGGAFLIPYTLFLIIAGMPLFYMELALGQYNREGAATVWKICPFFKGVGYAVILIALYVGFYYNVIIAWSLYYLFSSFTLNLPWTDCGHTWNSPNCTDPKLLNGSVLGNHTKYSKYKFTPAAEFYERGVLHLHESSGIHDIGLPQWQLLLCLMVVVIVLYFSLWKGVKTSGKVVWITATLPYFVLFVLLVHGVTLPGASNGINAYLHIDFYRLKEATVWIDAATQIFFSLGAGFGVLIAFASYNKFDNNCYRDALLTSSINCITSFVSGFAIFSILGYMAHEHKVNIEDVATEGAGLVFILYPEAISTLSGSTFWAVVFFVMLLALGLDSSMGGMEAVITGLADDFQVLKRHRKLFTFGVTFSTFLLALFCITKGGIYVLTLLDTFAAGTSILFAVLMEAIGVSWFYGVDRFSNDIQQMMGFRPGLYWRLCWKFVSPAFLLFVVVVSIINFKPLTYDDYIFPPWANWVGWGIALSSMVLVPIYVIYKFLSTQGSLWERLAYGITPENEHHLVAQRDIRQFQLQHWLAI
Chain of Cholecystokinin receptor type A (Homo sapiens) (P32238 whole entry): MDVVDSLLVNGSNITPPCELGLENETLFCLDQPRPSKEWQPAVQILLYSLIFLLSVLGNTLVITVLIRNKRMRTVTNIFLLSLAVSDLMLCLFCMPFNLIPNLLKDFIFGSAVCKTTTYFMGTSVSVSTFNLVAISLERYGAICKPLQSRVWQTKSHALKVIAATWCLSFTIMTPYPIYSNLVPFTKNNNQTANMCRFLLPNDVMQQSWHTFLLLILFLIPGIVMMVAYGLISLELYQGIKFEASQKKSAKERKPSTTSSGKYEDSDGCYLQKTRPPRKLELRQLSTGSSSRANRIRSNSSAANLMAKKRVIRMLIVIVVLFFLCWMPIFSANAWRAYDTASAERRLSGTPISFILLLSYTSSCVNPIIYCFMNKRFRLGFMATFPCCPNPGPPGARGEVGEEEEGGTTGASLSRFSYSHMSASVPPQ
Chain of Cytochrome P450 2C9 (P11712 whole entry): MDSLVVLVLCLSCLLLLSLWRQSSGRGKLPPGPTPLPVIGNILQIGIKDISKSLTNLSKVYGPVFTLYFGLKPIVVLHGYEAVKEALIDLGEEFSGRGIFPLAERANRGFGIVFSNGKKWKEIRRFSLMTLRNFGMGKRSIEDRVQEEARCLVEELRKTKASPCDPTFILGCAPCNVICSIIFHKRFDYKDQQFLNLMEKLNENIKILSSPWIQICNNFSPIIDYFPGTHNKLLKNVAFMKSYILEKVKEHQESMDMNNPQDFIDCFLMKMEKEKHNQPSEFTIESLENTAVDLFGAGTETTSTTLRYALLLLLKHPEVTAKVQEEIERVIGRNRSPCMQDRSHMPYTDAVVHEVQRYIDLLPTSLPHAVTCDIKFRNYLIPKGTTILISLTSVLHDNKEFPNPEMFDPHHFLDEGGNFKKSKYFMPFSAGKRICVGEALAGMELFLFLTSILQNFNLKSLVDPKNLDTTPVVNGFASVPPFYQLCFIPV
Chain of D(2) dopamine receptor (Homo sapiens) (P14416 whole entry): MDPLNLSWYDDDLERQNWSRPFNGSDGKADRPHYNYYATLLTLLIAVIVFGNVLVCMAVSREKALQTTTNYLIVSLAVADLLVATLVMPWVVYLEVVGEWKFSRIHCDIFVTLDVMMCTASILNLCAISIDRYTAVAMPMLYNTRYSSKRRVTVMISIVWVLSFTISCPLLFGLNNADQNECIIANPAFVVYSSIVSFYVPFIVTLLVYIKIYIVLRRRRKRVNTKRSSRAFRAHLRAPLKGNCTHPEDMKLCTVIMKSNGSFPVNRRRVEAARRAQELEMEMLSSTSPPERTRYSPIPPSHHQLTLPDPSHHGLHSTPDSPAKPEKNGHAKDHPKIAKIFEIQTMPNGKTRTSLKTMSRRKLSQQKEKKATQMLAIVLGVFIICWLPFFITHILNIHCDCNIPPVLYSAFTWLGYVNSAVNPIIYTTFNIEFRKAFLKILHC
Chain of Kappa-type opioid receptor (Homo sapiens) (P41145 whole entry): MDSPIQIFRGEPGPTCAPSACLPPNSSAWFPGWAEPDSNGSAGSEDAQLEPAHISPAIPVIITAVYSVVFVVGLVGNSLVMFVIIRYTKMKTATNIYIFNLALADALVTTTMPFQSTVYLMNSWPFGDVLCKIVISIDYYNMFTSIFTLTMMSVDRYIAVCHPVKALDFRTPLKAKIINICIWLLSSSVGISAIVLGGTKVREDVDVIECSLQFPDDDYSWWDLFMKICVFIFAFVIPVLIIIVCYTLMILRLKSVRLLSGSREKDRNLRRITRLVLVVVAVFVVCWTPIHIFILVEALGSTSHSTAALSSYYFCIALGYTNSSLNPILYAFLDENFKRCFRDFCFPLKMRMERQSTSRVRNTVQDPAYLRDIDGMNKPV
Chain of Cytochrome P450 2C19 (P33261 whole entry): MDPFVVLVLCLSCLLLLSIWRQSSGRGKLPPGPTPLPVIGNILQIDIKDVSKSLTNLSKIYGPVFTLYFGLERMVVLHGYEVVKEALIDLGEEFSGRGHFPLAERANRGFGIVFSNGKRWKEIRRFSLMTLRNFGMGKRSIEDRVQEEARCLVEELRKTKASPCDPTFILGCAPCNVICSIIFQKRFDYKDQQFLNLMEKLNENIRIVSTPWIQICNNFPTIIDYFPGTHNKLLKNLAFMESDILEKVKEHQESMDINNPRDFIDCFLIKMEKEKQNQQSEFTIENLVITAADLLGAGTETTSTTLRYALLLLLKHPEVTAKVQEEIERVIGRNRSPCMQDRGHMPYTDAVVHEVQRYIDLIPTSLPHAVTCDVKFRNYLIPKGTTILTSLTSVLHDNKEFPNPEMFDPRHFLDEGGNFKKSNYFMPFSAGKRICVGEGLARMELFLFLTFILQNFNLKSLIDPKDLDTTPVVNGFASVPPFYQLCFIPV
Chain of C-X-C chemokine receptor type 2 (Homo sapiens) (P25025 whole entry): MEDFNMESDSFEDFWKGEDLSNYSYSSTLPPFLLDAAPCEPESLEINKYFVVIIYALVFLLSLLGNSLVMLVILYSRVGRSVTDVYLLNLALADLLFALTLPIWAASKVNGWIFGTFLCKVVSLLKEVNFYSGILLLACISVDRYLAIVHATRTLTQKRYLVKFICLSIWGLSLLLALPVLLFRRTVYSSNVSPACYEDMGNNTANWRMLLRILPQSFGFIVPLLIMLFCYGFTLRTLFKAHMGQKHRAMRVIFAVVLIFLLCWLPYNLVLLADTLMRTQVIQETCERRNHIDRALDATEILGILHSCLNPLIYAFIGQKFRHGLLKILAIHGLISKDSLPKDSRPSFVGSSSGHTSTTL

In the case of `Cn1ccc2c(Nc3cccc(Cl)c3)ncc(C(=O)N3CCOCC3)c21`, the Activity [1] is reported as less than 10%, the Activity [2] is reported as less than 10% and the Activity [3] is reported as 24%. For the same compound, the IC50 (Cytochrome P450 2C19) was 41 µM, the Activity [4] was 15% and the Activity [5] was less than 10%. For the same compound, the concentration at 5 h [6] was 12.3 µM, the Activity (Rattus norvegicus [7]) was “Active” and the IC50 (Cytochrome P450 2C9) was 42 µM. For the same compound, the Activity [8] was less than 10%, the Activity [9] was less than 10% and the Efficacy (Cannabinoid receptor 2 [10]) was 91%. The EC50 (Cannabinoid receptor 2 [11]) was 0.008 µM, the IC50 (Cytochrome P450 2D6) was 21 µM and the Kp at 1 h [12] was 1. For the same compound, the Activity [13] was less than 10%, the CLint scaled [14] was less than 0.8 mL/min/kg and the Activity [15] was 11%. The Activity [16] was less than 10%, the IC50 (Cytochrome P450 1A2) was greater than 100 µM and the Activity [17] was less than 10%. For the same compound, the Activity [18] was less than 10%, the Activity [19] was less than 10% and the Kp at 5 h [20] was 1. For the same compound, the Kp at 12 h [21] was 1.04, the Activity (Rattus norvegicus [22]) was “Non-toxic” and the Activity [23] was less than 10%. The concentration at 120 h [24] was 6.1 µM, the Activity [25] was less than 10% and the Efficacy (Cannabinoid receptor 2 [26]) was 100%. The minimal effective dose (Rattus norvegicus [27]) was 3 mg/kg, the CLint scaled [28] was less than 0.6 mL/min/kg and the Activity [29] was less than 10%. It also gave a concentration at 120 h [30] of 1.8 µM, an Activity [31] of less than 10% and a concentration at 0.8 h [32] of 1.1 µM. It also gave an Activity [33] of less than 10%, an Activity [34] of less than 10% and a Ratio EC50 (Homo sapiens) of 1200. The Activity [35] was 25%, the Activity [36] was less than 10% and the Activity (Rattus norvegicus [37]) was “Active”. The Kp at 3 h [38] was 1, the Activity [39] was 15% and the Efficacy (Cannabinoid receptor 1) was 88%. The Activity [40] was less than 10%, the concentration at 3 h [41] was 10 µM and the Activity (Rattus norvegicus [42]) was “Active”. It also gave an Activity [43] of 11%.
